Experimental data published in publication PMC7129073 (Clinical Microbiology and Infection, 2015).
≈ marks a conversion by molar mass, not a printed value. Read-outs that look alike come from different tables or passages of the source.

Assays:
CA-MRSA = experiment: MIC, MBC; type: cell-based, Staphylococcus aureus; settings: time kill, two strains
[1] = Phase 3 trial, complicated intra-abdominal infections; type: in vivo, human
MDR-MRSA = experiment: MIC, MBC; type: cell-based, Staphylococcus aureus; settings: time kill, two strains
[2] = test system: group A beta-haemolytic streptococcal (GABHS) pharyngitis; experiment: Phase III trial, GABHS pharyngitis/tonsillitis; type: in vivo, human
[3] = test system: viridans group streptococci (VGS); experiment: MIC; type: cell-based
[4] = test system: methicillin resistant Staphylococcus aureus; experiment: NCCLS agar dilution MIC; type: cell-based
[5] = test system: Streptococcus agalactiae strains P0162 and P0425; experiment: Microdilution; type: cell-based
Nocardia spp. [6] = experiment: Time-kill at peak-serum concentrations, seven strains; type: cell-based; settings: of seven strains; 24, 72 h
S. pneumoniae (SPN) = experiment: NCCLS broth microdilution, fluoroquinolones 1999–2004; type: cell-based, Streptococcus pneumoniae; settings: Streptococcus pneumoniae, read-out: MIC90 during the six years, 1999–2004
MRSA = experiment: Agar dilution MIC; type: cell-based, Staphylococcus aureus
[7] = test system: methicillin susceptible Staphylococcus aureus; experiment: NCCLS agar dilution MIC; type: cell-based
MSSA = experiment: Agar dilution MIC; type: cell-based, Staphylococcus aureus
K. pneumoniae = experiment: MIC; type: cell-based, Klebsiella pneumoniae; settings: for MIC: Klebsiella pneumoniae
Staphylococcus aureus = experiment: Susceptibility testing; type: cell-based; settings: conjunctival isolates 2000–2004
[8] = test system: glycopeptide intermediate Staphylococcus species (GISS); experiment: VITEK II, screening plate and E test, blood isolates; type: cell-based, coagulase-negative Staphylococci
Acinetobacter = experiment: Disk diffusion; type: cell-based; settings: 37 isolates selected as resistant to beta-lactams
Streptococcus pneumoniae = experiment: Susceptibility testing; type: cell-based; settings: 99 isolates tested
Nocardia spp. [9] = experiment: E-test on Mueller Hinton agar, 81 clinical isolates; type: cell-based; settings: for MIC range: read after 48 and 72 h
[10] = test system: Salmonella serotype Enteritidis; experiment: Disk diffusion, food isolates Spain; type: cell-based; settings: n = 96
E. coli [11] = experiment: SMART 2003 Europe, microdilution; type: cell-based, Escherichia coli; settings: 1106 isolates
[12] = test system: Salmonella, other 49 serotypes; experiment: Disk diffusion, food isolates Spain; type: cell-based; settings: n = 115
Haemophilus influenzae = experiment: Susceptibility testing; type: cell-based; settings: conjunctival isolates 2000–2004
[13] = test system: Salmonella serotype Typhimurium; experiment: Disk diffusion, food isolates Spain; type: cell-based; settings: n = 53
Enterobacteriaceae = experiment: SMART 2003 Europe, microdilution; type: cell-based; settings: 1948 isolates
[14] = test system: inducible Enterobacteriaceae; experiment: SMART 2003, intraabdominal isolates; type: cell-based
Klebsiella = experiment: SMART 2003 Europe, microdilution; type: cell-based, Klebsiella spp.; settings: 341 isolates
Escherichia coli (ECO) = experiment: Broth microdilution; type: cell-based; settings: 2001
Escherichia coli = experiment: Vitek 2 susceptibility, urine isolates of children; type: cell-based
Pseudomonas aeruginosa = experiment: MIC, strains from cystic fibrosis patients; settings: by MIC
H. influenzae = experiment: Disk diffusion, sputum isolates Athens 2001–2004; type: cell-based, Haemophilus influenzae
E. coli [15] = experiment: Disk diffusion, urine isolates of BPH patients; settings: strains isolated after operative intervention
S. pneumoniae = experiment: MIC of invasive strains, Saint George Hospital 2001–2004; type: cell-based, Streptococcus pneumoniae
P. aeruginosa = experiment: Disk diffusion, urine isolates of BPH patients
Pseudomonas spp. = experiment: MIC; type: cell-based
enterococci = experiment: Disk diffusion and E-test, faecal isolates of cancer patients; type: cell-based, Enterococcus; settings: 38 strains
E. coli (Ec) = experiment: E-test, recurrent UTI isolates of children; type: cell-based, Escherichia coli
S. aureus ATCC 29213 = experiment: Cefoxitin Neo-Sensitabs tablet diffusion, control strain; type: cell-based; settings: Staphylococcus aureus, ATCC29213, read-out: zone diameter
S. aureus ATCC 25923 = experiment: as above; type: cell-based; settings: Staphylococcus aureus, ATCC25923, read-out: zone diameter

Compound: CN(C)c1cc(NC(=O)CNC(C)(C)C)c(O)c2c1C[C@H]1C[C@H]3[C@H](N(C)C)C(O)=C(C(N)=O)C(=O)[C@@]3(O)C(O)=C1C2=O [TGC, tigecycline]
- Δ Log10 CFU/ml (CA-MRSA): −2.37 Log10 CFU/ml
- clinical cure rate at TOC, ME group ([1]; TGC 100 mg then 50 mg q12h iv, IMI/CIS 500/500 mg q6h, 5–14 days): 80.6%
- nausea ([1]; adverse events): 31.0%
- vomiting ([1]; adverse events): 25.7%
- clinical cure rate at TOC, m-mITT cohort ([1]; same regimens): 73.5%
- Δ Log10 CFU/ml (MDR-MRSA): −2.59 Log10 CFU/ml

Compound: CC[C@H]1OC(=O)[C@H](C)[C@@H](O[C@H]2C[C@@](C)(OC)[C@@H](O)[C@H](C)O2)[C@H](C)[C@@H](O[C@@H]2O[C@H](C)C[C@H](N(C)C)[C@H]2O)[C@](C)(O)C[C@@H](C)CN(C)[C@H](C)[C@@H](O)[C@]1(C)O [3-day azithromycin, azithromycin]
- bacteriologic eradication at TOC (Day 24–28) ([2]; BPP population, single 2.0 g dose vs 500 mg QD for 3 days): 81.4%
- clinical cure ([2]; TOC): 96.7%
- bacteriologic recurrence at long-term follow up (Day 38–45) ([2]; in vivo): 7.7%
- diarrhoea/loose stools ([2]; most frequent adverse event): 11%

Compound: COc1c(N2C[C@@H]3CCCN[C@@H]3C2)c(F)cc2c(=O)c(C(=O)O)cn(C3CC3)c12 [moxifloxacin]
- MIC50 [3]: 0.12 µg/mL (≈ 0.299 µM)
- MIC90 [3]: 0.25 µg/mL (≈ 0.623 µM)
- MIC50 ([4]; Staphylococcus aureus): 2 µg/mL (≈ 4.98 µM)
- MIC90 ([4]; Staphylococcus aureus): 8 µg/mL (≈ 19.9 µM)
- MIC ([5]; strain P0162 (ParC Ser79Phe, GyrA Glu85Ala)): 0.5 µg/mL (≈ 1.25 µM)
- MIC ([5]; strain P0425 (ParC Ser79Phe, GyrA Glu85Lys)): 2 µg/mL (≈ 4.98 µM)
- strains with bactericidal activity (≥3 log10 cfu/ml decrease) (Nocardia spp. [6]): 2 strains
- MIC90 (S. pneumoniae (SPN)): 0.12 to 0.25 µg/mL (≈ 0.299 to 0.623 µM)
- MIC50 (MRSA; Staphylococcus aureus, MRSA): < 4 µg/mL
- MIC90 (MRSA; Staphylococcus aureus, MRSA): < 4 µg/mL
- MIC range (MRSA; n = 50): 4 µg/mL (≈ 9.96 µM)
- MIC50 ([7]; Staphylococcus aureus): 0.06 µg/mL (≈ 0.149 µM)
- MIC90 ([7]; Staphylococcus aureus): 0.12 µg/mL (≈ 0.299 µM)
- MIC range ([7]; n = 41): 0.03 to 8 µg/mL
- MIC50 (MSSA; Staphylococcus aureus, MSSA): < 0.025 µg/mL
- MIC90 (MSSA; Staphylococcus aureus, MSSA): < 0.0625 µg/mL
- MIC range (MSSA; n = 200): 25 to 2000 µg/mL

Compound: NC[C@H]1O[C@H](O[C@H]2[C@H](O)[C@@H](O[C@H]3O[C@H](CO)[C@@H](O)[C@H](N)[C@H]3O)[C@H](N)C[C@@H]2N)[C@H](N)C[C@@H]1O [tobramycin]
- susceptibility category (K. pneumoniae; BSAC): resistant
- resistant isolates (Staphylococcus aureus): 14.6%
- resistance rate ([8]; 73 GISS strains): 91,8%
- resistant isolates (Acinetobacter): 10.8%
- resistant isolates (Streptococcus pneumoniae): 49.5%
- MIC50 (Nocardia spp. [9]; Nocardia): 4 µg/mL (≈ 8.56 µM)
- MIC90 (Nocardia spp. [9]; Nocardia): 12 µg/mL (≈ 25.7 µM)
- MIC range (Nocardia spp. [9]): <0.016 to 24 µg/mL
- resistance rate (NCCLS M100-S13) [10]: 1%
- per cent susceptible (E. coli [11]): 92%
- resistance rate (NCCLS M100-S13) [12]: 0%
- resistant isolates (Haemophilus influenzae): 2.6%
- resistance rate (NCCLS M100-S13) [13]: 4%
- per cent susceptible (Enterobacteriaceae): 93%
- % susceptible ([14]; A/P (N = 200)): 77%
- % susceptible ([14]; EU (N = 354)): 93%
- % susceptible ([14]; LA (N=113)): 79%
- % susceptible ([14]; NA (N = 163)): 93%
- per cent susceptible (Klebsiella): 91%
- susceptible (Escherichia coli (ECO); NAL-resistant isolates): 71.4%
- susceptible (Escherichia coli (ECO); NAL-susceptible isolates): 95.0%

Compound: NCC[C@H](O)C(=O)N[C@@H]1C[C@H](N)[C@@H](O[C@H]2O[C@H](CN)[C@@H](O)[C@H](O)[C@H]2O)[C@H](O)[C@H]1O[C@H]1O[C@H](CO)[C@@H](O)[C@H](N)[C@H]1O [amikacin]
- MIC (K. pneumoniae): 4 µg/mL (≈ 6.83 µM)
- strains with bactericidal activity (≥3 log10 cfu/ml decrease) (Nocardia spp. [6]): 7 strains
- resistant isolates (Acinetobacter): 62.1%
- susceptibility rate (Escherichia coli; paediatric surgical unit (PSU)): 62%
- susceptibility rate (Escherichia coli; paediatric units (PU)): 99%
- MIC50 (Nocardia spp. [9]; Nocardia): 0.38 µg/mL (≈ 0.649 µM)
- MIC90 (Nocardia spp. [9]; Nocardia): 1 µg/mL (≈ 1.71 µM)
- MIC range (Nocardia spp. [9]): 0.016 to 2 µg/mL
- Susceptible isolates (Pseudomonas aeruginosa): 100%
- resistance rate (NCCLS M100-S13) [10]: 1%
- per cent susceptible (E. coli [11]): 99%
- resistance rate (NCCLS M100-S13) [12]: 0%
- resistance rate (NCCLS M100-S13) [13]: 0%
- per cent susceptible (Enterobacteriaceae): 99%
- % susceptible ([14]; A/P (N = 200)): 91%
- % susceptible ([14]; EU (N = 354)): 99%
- % susceptible ([14]; NA (N = 163)): 99%
- per cent susceptible (Klebsiella): 98%

Compound: amoxicillin/clavulanate
- resistance rate (H. influenzae; 2001–2002): 0%
- resistance rate (H. influenzae; 2003–2004): 4.6%
- MIC50 (Nocardia spp. [9]): 2 µg/mL
- MIC90 (Nocardia spp. [9]): 8 µg/mL
- resistance (E. coli [15]): 93.1%
- % S (S. pneumoniae): 100%
- %R (S. pneumoniae): 0%

Compound: CCN1CCN(C(=O)N[C@@H](C(=O)N[C@@H]2C(=O)N3[C@@H]2SC(C)(C)[C@@H]3C(=O)O)c2ccccc2)C(=O)C1=O [piperacillin]
- resistant isolates (Acinetobacter): 100.0%
- resistance (P. aeruginosa): 73.3%
- susceptible strains (Pseudomonas spp.): 84%

Compound: teicoplanin
- tolerant isolates ([3]; 83 isolates, tolerance to VA and TP): 77.6%
- MIC50 ([3]; 107 strains, 1990–2003): 0.06 µg/mL
- MIC90 ([3]; 107 strains, 1990–2003): 0.12 µg/mL
- susceptibility of all isolates ([3]; NCCLS): All isolates were susceptible
- MIC50 ([4]; n = 53): 1 µg/mL
- MIC90 ([4]; n = 53): 2 µg/mL
- MIC range ([4]; n = 53): 0.5 to 8 µg/mL
- MIC of resistant strains ([8]; 26 strains): 32 to 256 µg/mL
- MIC of intermediate sensitive strains ([8]; 47 strains): 16 µg/mL
- sensitivity of all isolated strains (enterococci): All the isolated strains were sensitive
- MIC50 ([7]; n = 41): 1 µg/mL
- MIC90 ([7]; n = 41): 1 µg/mL
- MIC range ([7]; n = 41): 0.25 to 2 µg/mL
- Δ Log10 CFU/ml (CA-MRSA): −1.86 Log10 CFU/ml
- Δ Log10 CFU/ml (MDR-MRSA): −3.82 Log10 CFU/ml

Compound: CC1(C)S[C@@H]2[C@H](NC(=O)[C@H](NC(=O)N3CCNC3=O)c3ccccc3)C(=O)N2[C@H]1C(=O)O [azlocillin]
- resistance (P. aeruginosa): 73.3%

Compound: Cc1cc(NS(=O)(=O)c2ccc(N)cc2)no1 [Sulfa, sulfamethoxazol]
- MIC of sensitive isolates carrying sulI and sulII (E. coli (Ec); 3 isolates): 8 µg/mL
- MIC of sensitive strains without the three genes (E. coli (Ec); 6 strains): 12 to 32 µg/mL
- resistant isolates (E. coli (Ec); 20 out of 29): 65.5%

Compound: CO[C@@]1(NC(=O)Cc2cccs2)C(=O)N2C(C(=O)O)=C(COC(N)=O)CS[C@@H]21 [cefoxitin]
- MIC (K. pneumoniae): > 64 µg/mL
- zone of inhibition at 10 µg/disc (S. aureus ATCC 29213): 21 to 23 mm
- zone of inhibition at 30 µg/disc (S. aureus ATCC 29213): 27 to 29 mm
- zone of inhibition at 60 µg/disc (S. aureus ATCC 29213): 29 to 33 mm
- per cent susceptible (E. coli [11]): 94%
- zone of inhibition at 10 µg/disc (S. aureus ATCC 25923): 22 to 23 mm
- zone of inhibition at 30 µg/disc (S. aureus ATCC 25923): 27 to 29 mm
- zone of inhibition at 60 µg/disc (S. aureus ATCC 25923): 32 to 33 mm
- per cent susceptible (Enterobacteriaceae): 82%
- % susceptible ([14]; A/P (N = 200)): 27%
- % susceptible ([14]; EU (N = 354)): 29%
- % susceptible ([14]; LA (N=113)): 30%
- % susceptible ([14]; NA (N = 163)): 23%
- per cent susceptible (Klebsiella): 92%
